# The METLIN SMRT retention time set (Domingo-Almenara et al. 2019)
# Assay: gradient 5% acetonitrile 3 min, to 50% in 2 min, to 85% in 15 min, held 3 min, 100 µL/min
# Conditions: column: Zorbax Extend-C18 2.1 x 50 mm; eluents: water / acetonitrile, 0.1% formic acid
# Outline: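 Data were gathered over 3 months by HPLC coupled to a quadrupole time-of-flight mass spectrometer, operated in positive and negative ionization mode. Mixtures of ~100 pure standards ran on a Zorbax Extend-C18 column (2.1 × 50 mm, 1.8 μm) at 100 μL/min, with water and acetonitrile each containing 0.1% formic acid and dead and dwell volumes of 40 μL and 900 μL. Retention time was read from adduct peaks picked by computer and checked manually.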
row,SMILES,RP-LC retention time [s]
1,Cc1cc(C)n(CCN2CCN(C(=O)C3CCC3)CC2)n1,546
2,O=C(c1ccc2c(c1)OCO2)N1CCN(c2cc(-c3ccccc3)[nH]n2)CC1,733
3,COc1ccc(Cl)cc1NS(=O)(=O)c1cc2c(s1)CCN(C(=O)C1CCC1)C2,973
4,CCn1c(=O)oc2cc(-c3noc(-c4n[nH]c5c4CCCC5)n3)ccc21,914
5,OC(c1ccccc1)(c1ccccc1)c1nccn1-c1ccccc1,754
6,CN(C)c1ccc(CNC(=O)C2CCN(c3cc(N4CCSCC4)ncn3)CC2)cc1,579
7,CC(=O)c1ccc(N2CCN(C(=O)C3Oc4ccccc4NC3=O)CC2)cc1 (stereo not drawn),723
8,COc1ccc(-c2nc(Cc3noc(Cc4cccc(F)c4)n3)c(C)o2)cc1,1000
9,CC(C)OC(=O)c1ncoc1-c1ccccc1C(=O)N1CCN(C2CCCCC2)CC1,638
10,COc1ccc(N2CCN(CCCNC(=O)C3CCCN(c4nccc(C)n4)C3)CC2)cc1 (stereo not drawn),603
11,Brc1cccc(-c2nnc(Cc3nc(-c4ccc5c(c4)OCO5)no3)o2)c1,1060
12,COc1ccc(Cl)cc1NS(=O)(=O)c1cn(C(C)C)c2ncccc12,972
13,CCCn1cc(CCNC(=O)Nc2cc(F)ccc2F)c2cccnc21,849
14,COc1ccc(C2C(C(=O)NCCCN3CCCCCC3)CCC(=O)N2c2ccc(OC)cc2)cc1 (stereo not drawn),589
15,COc1ccc(S(=O)(=O)N2[C@H]3CC[C@@H]2c2cnc(C)nc2C3)cc1,693
16,O=C(CCC(=O)Nc1noc2ccccc12)NCCc1ccc(Cl)cc1,816
17,O=C(Nc1cccc(Cl)c1)Nc1cccc(-c2ccc3nncn3n2)c1,734
18,CN(C)C(=O)c1n[nH]c2c1CN(C(=O)c1ccc(C(F)(F)F)cc1)CC2,674
19,CCOc1ccc(NC(=O)Cc2csc3nc(-c4ccc(C)c(C)c4)cn23)cc1,903
20,O=C(Nc1ccc2nncn2c1)Nc1ccccc1Cl,718

row,SMILES,RP-LC retention time [s]
1,CCCC(NC(=O)c1ccc(N(C)C)cc1)C(=O)Nc1nc2ccccc2[nH]1 (stereo not drawn),706
2,CCN(CC)c1nc2cc(C(=O)OC)ccc2c(=O)n1CCc1ccccc1,1250
3,CN1c2cc(F)ccc2C(=O)NC12CCN(C(=O)c1ccc(F)c(Cl)c1)CC2,823
4,CCOc1ccccc1NC(=O)Cc1csc2nc(-c3ccc(OC)c(OC)c3)cn12,793
5,NS(=O)(=O)c1cccnc1Nc1ccc(Br)cc1,913
6,CCCCC(=O)NC1(C(F)(F)F)C(=O)N(CCc2ccccc2)C(C)=C1C(C)=O (stereo not drawn),980
7,CCOc1ccccc1N1CCN(S(=O)(=O)c2nn(C)cc2C(=O)NCCCOC(C)C)CC1,971
8,O=C(Nc1cccc(-c2cn3cccnc3n2)c1)c1ccc(F)c(F)c1,706
9,COc1cc(CNC(=O)C2CCCN(c3nccnc3Sc3ccccc3)C2)cc(OC)c1 (stereo not drawn),986
10,Clc1ccc(-c2csc(N3CCN(c4nc(-c5ccccc5)cs4)CC3)n2)cc1,739
11,Cc1ccc2oc(SCc3noc(CCC(=O)Nc4nc(-c5ccccc5)cs4)n3)nc2c1,1130
12,COc1ccc2[nH]c3c(c2c1)CCNC31CCN(S(=O)(=O)c2cccnc2)CC1,634
13,Cc1cc(Cl)ccc1NS(=O)(=O)c1ccc(-c2c(C)noc2C)cc1,1030
14,O=C(c1cccs1)N1CCCC(c2nn[nH]n2)C1 (stereo not drawn),627
15,CCN1C(=O)Cc2ccccc2C1C(=O)NCc1ccco1 (stereo not drawn),690
16,COc1cccc(C2CC(c3cccc(NS(C)(=O)=O)c3)=NN2C(=O)C(C)(C)C)c1O (stereo not drawn),820
17,CCOC(=O)c1c(C)[nH]c(C(=O)N2CCC(CC(=O)N(C)Cc3ccco3)CC2)c1C,765
18,O=C(O)c1cccn2c(=O)c3ccc(F)cc3nc12,687
19,CCc1ccc(CNC(=O)c2cc3n(n2)CC(C)(C(=O)NC2CCCC2)N(CC)C3=O)cc1 (stereo not drawn),865
20,CCOC(=O)c1noc2ncnc(NCc3cccc(OC)c3)c12,971

row,SMILES,RP-LC retention time [s]
1,CC1=NS(=O)(=O)N(C)C=C1C(=O)OCc1nc(-c2cccc(F)c2)no1,967
2,Cc1nc(OCC(=O)NCc2ccc(F)cc2)c2ccccc2n1,705
3,O=C(Nc1cccs1)Nc1ccccc1NC(=O)c1ccccc1C(F)(F)F,805
4,O=C(NCCCn1c(-c2ccncc2)nc2cccnc21)Nc1ccc(Br)cc1F,718
5,Cc1ccc(CNC(=O)c2ccc(-c3nnc4ccc(NC(=O)C5CCC5)cn34)cc2)cc1,869
6,CCOc1ccc(N2C=C(C(=O)OC)S(=O)(=O)c3ccc(Br)cc32)cc1,1040
7,Cc1ccc(-c2csc(NC(=O)c3sc(-c4ccccc4)nc3C)n2)cc1,1300
8,CCCOc1ccc(-c2noc(Cc3nc(-c4ccc(OC)c(OC)c4)cs3)n2)cc1,1220
9,Cc1nnc(-c2cn(CC(=O)Nc3ccc(Br)cc3)c3ccccc23)o1,888
10,Cc1ccn2c(Nc3ccccc3C)c(-c3cccc(Br)c3)nc2c1,819
11,Cc1ccc(N(C)C(=O)CN2C(=O)CCCc3cc(S(=O)(=O)N4CCCCC4)ccc32)cc1,976
12,CC(C)N1CCn2cc(S(=O)(=O)Nc3cc(F)cc(F)c3)cc2C1=O,794
13,Cn1cnnc1C1CCCCN1C(=O)COc1ccc(F)c(F)c1 (stereo not drawn),682
14,CN(C)S(=O)(=O)N(CC(=O)Nc1ccccc1C(F)(F)F)c1ccccc1,972
15,COc1ccc(-c2csc(Nc3cccc(C)n3)n2)cc1,821
16,O=C(N1CCC(Cc2ccc(COc3cccnc3)cc2)CC1)C1(c2ccccc2)CC1,891
17,COC(=O)c1ncn2c1C(=O)N(Cc1ccccc1)C(C)(C(=O)NC1CCCCCC1)C2 (stereo not drawn),777
18,CCOC(=O)c1ccc(N(C)c2csc(-c3ccccc3)n2)cc1,1270

# Next, values leading:
row,RP-LC retention time [s],SMILES
1,869,O=C(CCc1csc(NC(=O)c2cccs2)n1)Nc1ccc(F)c(Cl)c1
2,750,CN(CC1CCOCC1)C(=O)Nc1cccc(Cl)c1
3,587,COc1cccc(-c2cc3n(n2)CCCN(C(=O)Cc2ccsc2)C3)c1
4,577,CCOc1ccc(CN2CCc3nc(N4CCOCC4)ncc3C2)cc1OCC
5,814,CC1=C(c2ccccc2)S(=O)(=O)N=C1N1CCCN(C(=O)Nc2cccc(C#N)c2)CC1
6,919,Cc1cc(NC(=O)NC2CCN(c3ccccc3)C2=O)ccc1Br (stereo not drawn)
7,686,CCc1cccc(C)c1NC(=O)Cn1cnc2nc(N3CCC(C(=O)NC4CC4)CC3)sc2c1=O
8,746,CCc1noc(NC(C)=O)c1-c1ccc(OC)c(S(=O)(=O)NC(C)CC)c1 (stereo not drawn)
9,803,Cc1cccc(CSc2nnc(CNC(=O)c3ccc(S(=O)(=O)N(C)C)cc3)o2)c1
10,844,Cc1cccc(OCc2nc(CCN(C)C(=O)NCc3ccco3)no2)c1
11,826,CCOCCCNC(=O)C1CCCN(c2ccc(=O)n(-c3ccc(C)c(Cl)c3)n2)C1 (stereo not drawn)
12,903,Cc1oc(C2CCN(C(=O)NCc3cccc(F)c3)CC2)nc1C(=O)N1CCOCC1
13,725,COc1cccc(CC(=O)Nc2cnn(C)c(=O)c2N2CCOCC2)c1
14,653,O=C(NCc1cccc(Br)c1)C1CCCN(c2ccc(N3CCOCC3)nn2)C1 (stereo not drawn)
15,770,CCc1cc(=O)n(CC(=O)Nc2cccc(C)c2)c(N2CCOCC2)n1
16,619,CCn1cc(C)c(C(=O)O)c1CC(=O)N1CCOCC1
17,963,Cc1ccc2ncn(C3CCN(S(=O)(=O)c4cccc(Cl)c4)CC3)c(=O)c2c1
18,619,CCC(C)NC(=O)N1CCN(Cc2nc3cc(C(=O)N(CC)CC)ccc3o2)CC1 (stereo not drawn)
19,742,CCC(=O)N1CCc2cc(N3CC(C(=O)Nc4ccc(C)cc4C)CC3=O)ccc21 (stereo not drawn)
20,664,CCCn1cc(C(=O)N2CCCC2)c2nn(-c3ccccc3)c(=O)c-2c1
21,652,CC(=O)N1CCc2nn(CC(=O)N3CCN(c4ccccc4F)CC3)c(=O)cc2C1
22,781,CCN(c1ccccc1)S(=O)(=O)c1cc(-c2[nH]ncc2C(=O)N2CCCC2)oc1C
23,576,CCCNC(=O)C1CCN(c2ccc(SCC(=O)Nc3ccc(N(CC)CC)cc3C)nn2)CC1
24,928,CN(C)c1nn(CC(=O)Nc2ccc(F)c(Cl)c2)c(=O)c2ccccc12
25,910,Cc1ccc(C)c(NC(=O)Cn2c(=O)cc(-c3nc(C)no3)c3ccccc32)c1
26,997,COc1ccc(NC(=O)Cn2nc(N3CCCC(C)C3)c3ccccc3c2=O)cc1OC (stereo not drawn)
27,885,CC(C)c1ccc(NC(=O)CN2CCN(C(=O)Nc3ccc(Br)cc3)CC2=O)cc1
28,774,CCN1c2ccc(C)cc2C(=O)NC12CCN(C(=O)c1ccc(OC)cc1OC)CC2
29,907,Cc1ccc(-c2cnn(CC(=O)Nc3ccc(Br)cc3)c(=O)n2)cc1
30,761,Cc1ccc(Cl)cc1NC(=O)N(C)CC1CCOCC1
